In patent US8278441B2, “BACE inhibitors” (Eli Lilly and Company, priority 2009, dated 2012):
pIC50: −log10 of the molar value. Counter-ions that a name gives are not always drawn. Like-named read-outs stand apart in the source and are kept apart here.

What was measured:
[1] = target: T1, human BACE1(1-460):Fc (Homo sapiens, UniProt P56817); assay: BACE1 FRET assay; type: biochemical; settings: purified recombinant human BACE1(1-460):Fc, FRET substrate, pH 4.6
T1 construct: made in house; host or cells: HEK293 cells, transient transfection; purified from conditioned media by Protein A chromatography
T1 sequence (P56817 22-460): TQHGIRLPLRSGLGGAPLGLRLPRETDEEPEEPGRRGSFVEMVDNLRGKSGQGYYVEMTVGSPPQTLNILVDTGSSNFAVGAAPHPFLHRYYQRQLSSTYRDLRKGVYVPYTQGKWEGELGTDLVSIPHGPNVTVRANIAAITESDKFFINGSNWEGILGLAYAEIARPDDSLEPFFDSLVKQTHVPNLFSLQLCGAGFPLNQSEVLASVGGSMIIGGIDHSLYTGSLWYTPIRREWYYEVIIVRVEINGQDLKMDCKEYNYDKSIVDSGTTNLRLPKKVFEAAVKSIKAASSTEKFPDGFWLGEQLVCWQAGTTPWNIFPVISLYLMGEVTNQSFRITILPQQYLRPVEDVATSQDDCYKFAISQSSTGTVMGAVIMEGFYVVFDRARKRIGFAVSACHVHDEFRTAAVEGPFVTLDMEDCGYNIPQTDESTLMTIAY

[2] = target: T2, native endogenous human BACE1 in HEK293/APP751sw cells (Homo sapiens, UniProt P56817); assay: HEK293Swe whole cell assay (Abeta ELISA); type: cell-based
T2 construct: endogenous in cells; host or cells: HEK293p (ATCC CRL-1573) stably expressing APP751sw
T2 sequence (P56817 46-501): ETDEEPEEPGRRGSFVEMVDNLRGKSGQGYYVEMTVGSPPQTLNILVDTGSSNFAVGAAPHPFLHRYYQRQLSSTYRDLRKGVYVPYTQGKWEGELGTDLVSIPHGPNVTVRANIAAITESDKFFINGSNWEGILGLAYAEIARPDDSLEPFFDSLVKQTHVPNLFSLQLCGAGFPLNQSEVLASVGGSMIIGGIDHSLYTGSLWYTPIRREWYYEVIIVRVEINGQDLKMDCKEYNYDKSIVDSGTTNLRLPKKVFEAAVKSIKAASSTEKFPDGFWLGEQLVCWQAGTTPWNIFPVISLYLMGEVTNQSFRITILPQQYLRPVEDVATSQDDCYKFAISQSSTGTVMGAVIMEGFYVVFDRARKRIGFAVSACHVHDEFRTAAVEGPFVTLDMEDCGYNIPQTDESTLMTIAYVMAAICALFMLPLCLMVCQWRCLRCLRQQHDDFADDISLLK

[3] = target: T3, native, endogenous murine BACE1 in PDAPP primary cortical neurons (Mus musculus, UniProt P56818); assay: PDAPP primary neuronal assay (Abeta ELISA); type: cell-based; settings: primary cortical neurons from PDAPP embryos, 24 h
T3 construct: endogenous in cells; host or cells: primary cortical neurons from Embryonic Day 16 PDAPP transgenic mouse embryos
T3 sequence (P56818 46-501): as the sequence (P56817 46-501) above, with P6S, V162I, L165I, S180T, V182A, I340V, L393A, Q443H counted along it

[4] = tested on: beta-secretase; assay: In vivo inhibition of beta-secretase in PDAPP mice; settings: 3 hours; for Abeta 1-x peptide level reduction in brain cortex / C99 level reduction in brain cortex / sAPPb level reduction in brain cortex: young female PDAPP mice, vs vehicle-treated mice
Source text: Several animal models, including mouse, guinea pig, dog, and monkey, may be used to screen for inhibition of beta-secretase activity in vivo following compound treatment. Animals used in this invention can be wild type, transgenic, or gene knockout animals. For example, the PDAPP mouse model, prepared as described in Games et al., Nature 373, 523-527 (1995), and other non-transgenic or gene knockout animals are useful to analyze in vivo inhibition of Abeta and sAPPbeta production in the presence of inhibitory compounds. Generally, 2 to 12 month old PDAPP mice, gene knockout mice or non-transgenic animals are administered compound formulated in vehicles, such as corn oil, cyclodextran, phosphate buffers, PHARMASOLVE®, or other suitable vehicles. One to twenty-four hours following the administration of compound, animals are sacrificed, and brains as well as cerebrospinal fluid and plasma are removed for analysis of Abetas, C99, and sAPP fragments. (See Dovey, et al., Journal of Neurochemistry, 76, 173-181 (2001); and Johnson-Wood, et al., Proc. Natl. Acad. Sci. USA, 94, 1550-1555 (1997)).
For standard in vivo pharmacology studies, animals are dosed with various concentrations of compound and compared to a vehicle-treated control group dosed at the same time. For some time course studies, brain tissue, plasma, or cerebrospinal fluid is obtained from selected animals, beginning at time 0 to establish a baseline. Compound is administered to other groups and sacrificed at various times after dosing. Brain tissue, plasma, or cerebrospinal fluid is obtained from selected animals and analyzed for the presence of APP cleavage products, including Abeta peptides, sAPPbeta, and other APP fragments, for example, by specific sandwich ELISA assays. At the end of the test period, animals are sacrificed and brain tissues, plasma, or cerebrospinal fluid are analyzed for the presence of Abeta peptides, C99, and sAPPbeta, as appropriate. Brain tissues of APP transgenic animals are also analyzed for the amount of beta-amyloid plaques following compound treatment.

[5] = Abeta 1-40 in conditioned media, read-out: HEK 293 Swe A-beta (1-40) ELISA IC50
[6] = Abeta 1-42 in conditioned media, read-out: HEK 293 Swe A-beta (1-42) ELISA IC50
[7] = Abeta 1-40, read-out: PDAPP Neuron A-beta (1-40) ELISA IC50
[8] = Abeta 1-42, read-out: PDAPP Neuron A-beta (1-42) ELISA IC50

Compound	pIC50 [1]	pIC50 [2, 5]	pIC50 [2, 6]	pIC50 [3, 7]	pIC50 [3, 8]	CSF Abeta 1-42 level reduction ([4]; CSF, 10 mg/kg oral)	CSF Abeta 1-x level reduction ([4]; CSF, 10 mg/kg oral)	CSF sAPPalpha levels ([4]; CSF, 10 mg/kg oral)	CSF sAPPbeta level reduction ([4]; CSF, 10 mg/kg oral)	Abeta 1-x peptide level reduction in brain cortex ([4]; 10 mg/kg oral)	C99 level reduction in brain cortex ([4]; 10 mg/kg oral)	sAPPb level reduction in brain cortex ([4]; 10 mg/kg oral)	Abeta 1-x peptide level reduction in brain cortex ([4]; 10 mg/kg subcutaneous)	C99 level reduction in brain cortex ([4]; 10 mg/kg subcutaneous)	sAPPb level reduction in brain cortex ([4]; 10 mg/kg subcutaneous)
NC1=N[C@@]2(c3cccc(-c4cncnc4)c3)C[C@H](O)C[C@H]2CS1 (racemic) [Example 32, Racemic (4aRS,6RS,7aSR)-2-Amino-7a-(3-(pyrimidin-5-yl)phenyl)-4,4a,5,6,7,7a-hexahydrocyclopenta[d][1,3]thiazin-6-ol dihydrochloride]	6.46	6.17	6.76	6.36	6.45	–	–	–	–	–	–	–	–	–	–
Cl.NC1=N[C@@]2(c3cc(NC(=O)c4ccc(F)cn4)ccc3F)COC[C@H]2CS1 [Example 1, N-(3-((4aS,7aS)-2-Amino-4a,5,7,7a-tetrahydro-4H-furo[3,4-d][1,3]thiazin-7a-yl)-4-fluorophenyl)-5-fluoropicolinamide hydrochloride]	–	–	–	–	–	approximately 62%	approximately 62%	unchanged	22%	approximately 54%	~34%	~42%	approximately 64%	~60%	~44%
NC1=N[C@@]2(c3cc(NC(=O)c4nccs4)ccc3F)CCOC[C@H]2CS1 [Example 8, N-(3-((8aS)-2-Amino-4,4a,5,7,8,8a-hexahydropyrano[4,3-d][1,3]thiazin-8a-yl)-4-fluorophenyl)thiazole-2-carboxamide hydrochloride]	6.75	7.11	7.05	7.48	7.38	–	–	–	–	–	–	–	–	–	–
NC1=N[C@@]2(c3cccc(-c4cncnc4)c3)CCCC[C@H]2CS1 [Example 25, (8aS)-8a-(3-(Pyrimidin-5-yl)phenyl)-4a,5,6,7,8,8a-hexahydro-4H-benzo[d][1,3]thiazin-2-amine dihydrochloride]	6.14	5.87	5.94	6.13	6.18	–	–	–	–	–	–	–	–	–	–
